In patent US20150232457A1, “CRYSTALLINE FORMS OF AFATINIB DI-MALEATE” (RATIOPHARM GMBH, priority 2011, published 2015):
“And” between values parts separate entries of the source, which are not always exact repeats. Equal values may be shown once. Read-outs that look alike come from different tables or passages of the source.

What was measured:
[1] = Chemical stability at 30° C./65% relative humidity for 4 weeks (HPLC); format: physicochemical; details: stable means purity change less than about 1% by HPLC, solid state form maintained
[2] = crystalline form of US 2005/0085495 (WO2005/037824); cited from earlier work
[3] = Investigation of hygroscopicity (dynamic vapour sorption) with Karl-Fischer titration of the product; format: physicochemical
Experimental: Karl-Fischer titration was carried out using […] from Merck (HX908240). The instructions of the manual were followed and each sample was analyzed in triplicate. […] Investigation of Hygroscopicity (Dynamic Vapour Sorption (DVS)) Instrument: SPSx-1μ, (Projekt Messtechnik) Temperature: 25° C. Humidity cycles: [table] […] Then the sample was analyzed by XRD diffraction.

[4] = Stability and hygroscopicity at 40° C./75% relative humidity; format: physicochemical
Description: The term “non-hygroscopic” as used herein, and unless stated otherwise, refers to crystalline Afatinib di-maleate uptaking/absorbing less than 0.2% (w/w) of atmospheric water to the crystalline Afatinib di-maleate in the below specified conditions, as measured by Karl-Fischer (KF) titration or by monitoring the weight increase during dynamic vapour sorption (DVS) test.

## CN(C)C/C=C/C(=O)Nc1cc2c(Nc3ccc(F)c(Cl)c3)ncnc2cc1O[C@H]1CCOC1 [Form C, (E)-4-Dimethylamino-but-2-enoic acid {4-(3-chloro-4-fluoro-phenylamino)-7-[(S)-(tetrahydro-furan-3-yl)oxy]-quinazolin-6-yl}-amide]
[1]
  chemical stability: chemically stable

## CN(C)C/C=C/C(=O)Nc1cc2c(Nc3ccc(F)c(Cl)c3)ncnc2cc1O[C@H]1CCOC1 [Afatinib di-maleate, (E)-4-Dimethylamino-but-2-enoic acid {4-(3-chloro-4-fluoro-phenylamino)-7-[(S)-(tetrahydro-furan-3-yl)oxy]-quinazolin-6-yl}-amide]
[2]
  hygroscopicity: limited hygroscopisity
  polymorphic stability: polymorphically stable

## CN(C)C/C=C/C(=O)Nc1cc2c(Nc3ccc(F)c(Cl)c3)ncnc2cc1O[C@H]1CCOC1 [Form E, (E)-4-Dimethylamino-but-2-enoic acid {4-(3-chloro-4-fluoro-phenylamino)-7-[(S)-(tetrahydro-furan-3-yl)oxy]-quinazolin-6-yl}-amide]
[3]; Karl-Fischer titration, average of triplicate, after DVS of Form A at 25° C.
  water content (% by weight), average: 7.00 % by weight
[3]; Karl-Fischer titration, single determinations of a triplicate, after DVS humidity cycles of Form A at 25° C., 0-95% relative humidity, listed as Afatinib di-maleate after DVS of Form A
  water content (% by weight): 6.95 % by weight and 7.15 % by weight and 6.90 % by weight
[3]; obtained product analysed by 1H-NMR and HPLC
  decomposition after DVS: no decomposition
[4]
  hygroscopicity: not hygroscopic
[4]; stable means less than 1% converts to any other solid state form
  polymorphic stability: polymorphically stable
